The source of these data is patent US20240384268A1, “Oligonucleotides” (Hudson Institute of Medical Research, priority 2021, published 2024).

In the oligonucleotide strings, read from the 5' end, every base follows the letter of its sugar. An asterisk marks phosphorothioate; unmarked linkages are phosphodiester. Other units and linkages are bracketed, terminal groups are in braces. A string of capitals states the bases alone. d = 2'-deoxy (DNA); m = 2'-O-methyl

The target in the first series is cGAS (Homo sapiens, UniProt Q8N884). Briefly: ISD70-driven IP-10 (and IFN-β) production in THP-1 cells, ELISA. In kind it is cell-based. Further details: endogenous in cells; host or cells: THP-1 (undifferentiated). The settings on record: ASO 100 nM; relative to ISD70 only, given as fraction.
Sequence of cGAS (Q8N884 whole entry): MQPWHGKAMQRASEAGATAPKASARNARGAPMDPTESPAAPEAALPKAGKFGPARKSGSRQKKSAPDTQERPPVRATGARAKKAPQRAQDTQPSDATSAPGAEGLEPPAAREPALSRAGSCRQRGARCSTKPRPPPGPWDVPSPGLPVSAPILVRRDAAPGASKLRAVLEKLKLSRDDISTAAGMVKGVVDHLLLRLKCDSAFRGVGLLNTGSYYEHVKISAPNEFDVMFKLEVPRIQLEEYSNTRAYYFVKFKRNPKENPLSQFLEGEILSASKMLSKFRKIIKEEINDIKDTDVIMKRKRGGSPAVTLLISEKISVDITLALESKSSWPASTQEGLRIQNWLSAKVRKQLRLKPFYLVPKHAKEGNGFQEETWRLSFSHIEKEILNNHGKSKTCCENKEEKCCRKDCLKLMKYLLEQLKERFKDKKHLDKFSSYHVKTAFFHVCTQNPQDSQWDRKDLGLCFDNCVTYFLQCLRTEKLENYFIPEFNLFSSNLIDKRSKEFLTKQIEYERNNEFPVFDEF
For the substance “ACACTTCGTGGGGTCC (antisense; LNA-modified, pattern not given here) [HPRT LNA-665 V1]”, the “cGAS 100 nM (averaged IP-10 level relative to ISD70 condition)” value amounted to 0.516. With “CAACACTTCGTGGGGT (antisense; LNA-modified, pattern not given here) [HPRT LNA-667 V1]”, the “cGAS 100 nM (averaged IP-10 level relative to ISD70 condition)” value worked out at 0.675. With “CCAAGATCAGCAGTCT (antisense; LNA-modified, pattern not given here) [CTNN2B-2341 LNA KL]”, the “cGAS 100 nM (averaged IP-10 level relative to ISD70 condition)” value is reported as 0.356. The same measure, in the same setting: the figure for “CCATCCATGAGGTCCT (antisense; LNA-modified, pattern not given here) [CTNN2B-2545 LNA V1]” is 0.533; for “GATAGCACCTTCAGCA (antisense; LNA-modified, pattern not given here) [CTNN2B-1294 LNA KL]” it is 0.436. The same measure, in the same setting: for “GCAGGCTCAGTGATGT (antisense; LNA-modified, pattern not given here) [CTNN2B-1642 LNA V1]” the value was 0.458; for “GCATCCACCACGTCGT (antisense; LNA-modified, pattern not given here) [EGFR-3267 LNA V1]”, 0.602; for “GCCATCCACTTGATAG (antisense; LNA-modified, pattern not given here) [EGFR-2874 LNA V1]”, 0.688. Still for that read-out and setting: the figure for “GCCATGCTGGCTCGGA (antisense; LNA-modified, pattern not given here) [CAMSAP1-2584 LNA V1]” is 0.599.

Turning to “GCCATGTTTCTTCTTG (antisense; LNA-modified, pattern not given here) [MB21D1-1248 LNA KL]”, the “cGAS 100 nM (averaged IP-10 level relative to ISD70 condition)” value is given as 0.639. Regarding “GGCTGGAATCCGAGTT (antisense; LNA-modified, pattern not given here) [EGFR-4705 LNA KL]”, the “cGAS 100 nM (averaged IP-10 level relative to ISD70 condition)” value came to 0.592. Same read-out and setting: for “GGTTACGGCTCAGTAT (antisense; LNA-modified, pattern not given here) [CAMSAP1-4295 LNA KL]” the value was 0.661. Consider “GTATCGAAAGAGTCTG (antisense; LNA-modified, pattern not given here) [EGFR-3908 LNA KL]”, for which the “cGAS 100 nM (averaged IP-10 level relative to ISD70 condition)” value came to 0.609.

Turning to “GTCCCCTGTTGACTGG (antisense; LNA-modified, pattern not given here) [HPRT LNA-489 KL]”, the “cGAS 100 nM (averaged IP-10 level relative to ISD70 condition)” value came to 0.606. On the same count and under the same terms, for “GTCTTGGCTTCGTGGA (antisense; LNA-modified, pattern not given here) [MB21D1-522 LNA V1]” the value was 0.620; for “GTGTCTGGAAGCTTCC (antisense; LNA-modified, pattern not given here) [CTNN2B-809 LNA V1]”, 0.482; for “GTTCAGTCCTGTCCAT (antisense; LNA-modified, pattern not given here) [HPRT LNA-292 V1]”, 0.563.

For the substance “TCCAACACTTCGTGGG (antisense; LNA-modified, pattern not given here) [HPRT LNA-669 V1]”, the “cGAS 100 nM (averaged IP-10 level relative to ISD70 condition)” value was 0.539. “TCGTAGTTGCTTCCTA (antisense; LNA-modified, pattern not given here) [MB21D1-1181 LNA KL]”: the “cGAS 100 nM (averaged IP-10 level relative to ISD70 condition)” value was 0.610. On the same count and under the same terms, the figure for “TGATGGCCTCCCATCT (antisense; LNA-modified, pattern not given here) [HPRT LNA-332 V1]” is 0.650. Consider “TGCACACTTCGTACCC (antisense; LNA-modified, pattern not given here) [CAMSAP1-4916 LNA V1]”, for which the “cGAS 100 nM (averaged IP-10 level relative to ISD70 condition)” value stood at 0.572. The same measure, in the same setting: the figure for “TGGCCTCCCATCTCCT (antisense; LNA-modified, pattern not given here) [HPRT LNA-329 V1]” is 0.494; for “TGTGATGGCCTCCCAT (antisense; LNA-modified, pattern not given here) [HPRT LNA-334 V1]” it is 0.557; for “TTCGTGGGGTCCTTTT (antisense; LNA-modified, pattern not given here) [HPRT LNA-661 V1]” it is 0.520. With “TTTTGGCTGGGATCAA (antisense; LNA-modified, pattern not given here) [CAMSAP1-4697 LNA KL]”, the “cGAS 100 nM (averaged IP-10 level relative to ISD70 condition)” value was 0.590.

Still in this series, the particulars now being: THP-1; 300 nM LNA or 200 nM MOE ASO ~30 min; ISD70 overnight (FIG. 21, 23).
In the case of “GTGTCTGGAAGCTTCC (antisense; LNA-modified, pattern not given here) [CTNN2B-809 LNA V1]”, the “inhibition of cGAS in THP-1, LNA and MOE ASO validation (in words)” value is recorded as “potently inhibited signalling”.

The same series, now with this note: THP-1; 2′OMe or PS oligos, 100-250 nM, pre-treatment as in figure legends; ISD70 2.5 μg/ml.
With “mC*mG*mU*T*T*C*C*C*C*C*C*C*C*C*C*C*C*C*C*C (CGUTTCCCCCCCCCCCCCCC; antisense; sugars from the 5' end m3 d17, all phosphorothioate, methylation of C not given here) [[C2]Mut1-v3-dC]”, the “inhibition of ISD70-driven IP-10 production (in words)” value is “lacked significant inhibitory activity”. Take “mG*mG*mU*A*T*C*C*C*C*C*C*C*C*C*C*C*C*C*C*C (GGUATCCCCCCCCCCCCCCC; antisense; sugars from the 5' end m3 d17, all phosphorothioate, methylation of C not given here) [[C2]Mut1-dC]”: the “inhibition of ISD70-driven IP-10 production (in words)” value is “significantly more inhibitory than its precursor dC20”.

Another series deals with T1, TLR3 (Homo sapiens, UniProt O15455).
T1 sequence (O15455 24-904): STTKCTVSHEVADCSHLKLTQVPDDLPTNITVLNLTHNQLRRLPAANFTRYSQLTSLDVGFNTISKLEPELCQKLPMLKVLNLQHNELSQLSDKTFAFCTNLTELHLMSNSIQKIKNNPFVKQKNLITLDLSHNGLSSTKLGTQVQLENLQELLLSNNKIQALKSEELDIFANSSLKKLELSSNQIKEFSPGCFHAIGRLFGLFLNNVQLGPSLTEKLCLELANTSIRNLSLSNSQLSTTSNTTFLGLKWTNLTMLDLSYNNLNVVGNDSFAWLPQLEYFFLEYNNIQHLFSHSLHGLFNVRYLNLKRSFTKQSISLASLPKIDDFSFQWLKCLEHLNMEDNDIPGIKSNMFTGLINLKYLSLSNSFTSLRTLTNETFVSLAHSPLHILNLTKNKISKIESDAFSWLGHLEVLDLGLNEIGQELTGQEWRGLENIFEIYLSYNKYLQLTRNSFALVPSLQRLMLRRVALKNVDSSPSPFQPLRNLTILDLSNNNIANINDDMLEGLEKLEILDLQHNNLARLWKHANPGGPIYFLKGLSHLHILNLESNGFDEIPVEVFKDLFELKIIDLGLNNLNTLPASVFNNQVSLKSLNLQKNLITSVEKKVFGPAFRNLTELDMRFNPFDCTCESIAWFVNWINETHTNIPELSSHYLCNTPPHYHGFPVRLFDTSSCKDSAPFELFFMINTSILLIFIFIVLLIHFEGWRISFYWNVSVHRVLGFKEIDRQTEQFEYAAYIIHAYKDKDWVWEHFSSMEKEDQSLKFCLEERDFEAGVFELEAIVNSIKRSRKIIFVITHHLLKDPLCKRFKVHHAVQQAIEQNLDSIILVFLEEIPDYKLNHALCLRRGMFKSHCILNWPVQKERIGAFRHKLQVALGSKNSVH
The experiment in a line: HEK-TLR3 NF-κB-luciferase reporter, poly(I:C) stimulation. The settings on record: 3mer 2'OMe ASO at 2 uM, value relative to Ligand only = 1.000, NT = 0.000. Details: host or cells: HEK-Blue hTLR3 (HEK293). Format: cell-based.
Take AAU (antisense mA*mA*mU): the “TLR3 2uM” value was determined as 0.888. Same read-out and setting: the figure for ACU (antisense mA*mC*mU) is 1.062; for AGU (antisense mA*mG*mU) it is 0.829; for AUA (antisense mA*mU*mA) it is 0.570. For the substance AUG (mA*mU*mG), the “TLR3 2uM” value worked out at 0.859. The same measure, in the same setting: for AUU (mA*mU*mU) the value was 0.809. On to CAU (mC*mA*mU), for which the “TLR3 2uM” value was 0.866. On the same count and under the same terms, for CCU (mC*mC*mU) the value was 0.870; for CGU (mC*mG*mU), 0.833. On the same count and under the same terms, the figure for CUA (mC*mU*mA) is 0.851; for CUC (mC*mU*mC) it is 0.874. Turning to CUG (mC*mU*mG), the “TLR3 2uM” value is 0.870. Same read-out and setting: the figure for GCU (mG*mC*mU) is 0.808; for GGU (mG*mG*mU) it is 0.829. On to UAA (mU*mA*mA), for which the “TLR3 2uM” value turned out to be 0.790. Regarding UAC (mU*mA*mC), the “TLR3 2uM” value came to 0.813. Same read-out and setting: the figure for UAG (mU*mA*mG) is 0.940; for UAU (mU*mA*mU) it is 0.915. On the same count and under the same terms, the figure for UCC (mU*mC*mC) is 0.761; for UCU (mU*mC*mU) it is 0.804; for UGC (mU*mG*mC) it is 0.903. Still for that read-out and setting: for UGU (mU*mG*mU) the value was 0.967.

Consider UUA (mU*mU*mA), for which the “TLR3 2uM” value is reported as 1.081.

Turning to UUC (mU*mU*mC), the “TLR3 2uM” value stood at 1.023. The same measure, in the same setting: the figure for “UUG (listed as RNA, chemistry not fully specified)” is 1.030.
